Where “and” joins values, the source holds several entries; their conditions need not be identical. Identical values can stand only once. Inconclusive results and toxic doses are left out.
Test system: CD2F1 mice, L1210 leukemia ip, survival T/C
Test: NCI In Vivo Anticancer Drug Screen. Data for tumor model L1210 Leukemia (intraperitoneal) in CD2F1 (CDF1) mice
Details: endpoint: mean survival time, higher = longer survival
Method in brief: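 Compound-dosed mice with transplantable tumor versus matched vehicle controls; endpoint ratio T/C reported.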

[1] = dose: 50.0 mg/kg/injection, schedule: Q04DX002 (ip), vehicle: saline with Tween-80
[2] = dose: 100.0 mg/kg/injection, schedule: Q04DX002 (ip), vehicle: saline with Tween-80
[3] = dose: 200.0 mg/kg/injection, schedule: Q04DX002 (ip), vehicle: saline with Tween-80
[4] = dose: 100.0 mg/kg/injection, schedule: Q01DX001 (ip), vehicle: saline with Tween-80
[5] = dose: 200.0 mg/kg/injection, schedule: Q01DX001 (ip), vehicle: saline with Tween-80
[6] = dose: 25.0 mg/kg/injection, schedule: Q04DX003 (ip), vehicle: saline with Tween-80
[7] = dose: 50.0 mg/kg/injection, schedule: Q04DX003 (ip), vehicle: saline with Tween-80
[8] = dose: 100.0 mg/kg/injection, schedule: Q04DX003 (ip), vehicle: saline with Tween-80
[9] = dose: 200.0 mg/kg/injection, schedule: Q04DX003 (ip), vehicle: saline with Tween-80
[10] = dose: 400.0 mg/kg/injection, schedule: Q04DX003 (ip), vehicle: saline with Tween-80
[11] = dose: 100.0 mg/kg/injection, schedule: Q01DX009 (ip), vehicle: saline with Tween-80
[12] = dose: 200.0 mg/kg/injection, schedule: Q01DX009 (ip), vehicle: saline with Tween-80
[13] = dose: 400.0 mg/kg/injection, schedule: Q01DX009 (ip), vehicle: saline with Tween-80
[14] = dose: 50.0 mg/kg/injection, schedule: Q01DX009 (ip), vehicle: saline with Tween-80
[15] = dose: 100.0 mg/kg/injection, schedule: Q01DX009 (ip), vehicle: saline
[16] = dose: 200.0 mg/kg/injection, schedule: Q01DX009 (ip), vehicle: saline
[17] = dose: 400.0 mg/kg/injection, schedule: Q04DX002 (ip), vehicle: saline with Tween-80
[18] = dose: 100.0 mg/kg/injection, schedule: Q04DX002 (ip), vehicle: saline

CC1(C)CC(OP(=O)(c2ccccc2)c2ccccc2)CC(C)(C)N1O
T/C (dose: 100.0 mg/kg/injection, schedule: Q04DX003 (ip), vehicle: water): 106 % of control | T/C (dose: 200.0 mg/kg/injection, schedule: Q04DX003 (ip), vehicle: water): 91 % of control | T/C (dose: 400.0 mg/kg/injection, schedule: Q04DX003 (ip), vehicle: water): 102 % of control

COc1ccc2c(ccc3cc(OC)ccc32)c1
T/C [1]: 93 % of control | T/C [2]: 100 % of control | T/C [3]: 93 % of control

Nc1nc(-c2cccc([N+](=O)[O-])c2)c(N=Nc2ccc(Br)cc2)s1
T/C [4]: 96 % of control | T/C [5]: 87 % of control | T/C (dose: 400.0 mg/kg/injection, schedule: Q01DX001 (ip), vehicle: saline with Tween-80): 90 % of control

C[NH-].C[NH-].[Br][Pt][Br].[CH3-].[CH3-]
T/C (dose: 1.56 mg/kg/injection, schedule: Q04DX003 (ip), vehicle: saline with Tween-80): 97 % of control | T/C (dose: 3.13 mg/kg/injection, schedule: Q04DX003 (ip), vehicle: saline with Tween-80): 97 % of control | T/C (dose: 6.25 mg/kg/injection, schedule: Q04DX003 (ip), vehicle: saline with Tween-80): 104 % of control | T/C (dose: 12.5 mg/kg/injection, schedule: Q04DX003 (ip), vehicle: saline with Tween-80): 93 % of control | T/C [6]: 89 % of control and 93 % of control | T/C [7]: 102 % of control | T/C [8]: 100 % of control | T/C [9]: 98 % of control | T/C [10]: 94 % of control

CCC1C(C)CNC1C (centres undefined)
T/C [4]: 100 % of control

CCCOC(=O)OCCC
T/C [6]: 102 % of control | T/C [7]: 96 % of control | T/C [11]: 97 % of control | T/C [8]: 94 % of control | T/C [12]: 95 % of control | T/C [9]: 94 % of control | T/C [13]: 104 % of control | T/C [10]: 96 % of control

O=C1NCCN1c1ncc([N+](=O)[O-])s1
T/C (dose: 25.0 mg/kg/injection, schedule: Q01DX009 (ip), vehicle: saline with Tween-80): 101 % of control | T/C [14]: 97 % of control | T/C [11]: 97 % of control

O=C1OCC2C(=O)OCC12 (centres undefined)
T/C (dose: 50.0 mg/kg/injection, schedule: Q01DX001 (ip), vehicle: saline): 107 % of control | T/C (dose: 100.0 mg/kg/injection, schedule: Q01DX001 (ip), vehicle: saline): 101 % of control | T/C (dose: 200.0 mg/kg/injection, schedule: Q01DX001 (ip), vehicle: saline): 107 % of control | T/C (dose: 400.0 mg/kg/injection, schedule: Q01DX001 (ip), vehicle: saline): 109 % of control

C=CCCCCCCCCC(=O)NCC1CC1
T/C [11]: 94 % of control | T/C [12]: 100 % of control | T/C [13]: 86 % of control

CC(C)N=C1N(C(C)C)C([O-])=N[N+]1(C)C
T/C [15]: 101 % of control | T/C (dose: 100.0 mg/kg/injection, schedule: Q04DX003 (ip), vehicle: saline): 108 % of control | T/C [16]: 101 % of control | T/C (dose: 200.0 mg/kg/injection, schedule: Q04DX003 (ip), vehicle: saline): 96 % of control | T/C (dose: 400.0 mg/kg/injection, schedule: Q01DX009 (ip), vehicle: saline): 101 % of control | T/C (dose: 400.0 mg/kg/injection, schedule: Q04DX003 (ip), vehicle: saline): 107 % of control

Cc1[nH]ccc2c(C)c3nc4ccccc4c3cc12
T/C [14]: 152 % of control | T/C [11]: 117 % of control | T/C [9]: 96 % of control

O=C(CC(c1ccccc1)C(C(=O)O)C(=O)O)c1ccccc1 (centres undefined)
T/C (dose: 100.0 mg/kg/injection, schedule: Q04DX002 (ip), vehicle: other): 97 % of control | T/C (dose: 200.0 mg/kg/injection, schedule: Q04DX002 (ip), vehicle: other): 101 % of control | T/C (dose: 400.0 mg/kg/injection, schedule: Q04DX002 (ip), vehicle: other): 104 % of control

c1ccc(CCSCCSCCc2ccccn2)nc1
T/C [1]: 101 % of control | T/C [2]: 113 % of control | T/C [3]: 101 % of control | T/C [17]: 93 % of control

O=CN1CCCCC1
T/C [18]: 97 % of control | T/C (dose: 200.0 mg/kg/injection, schedule: Q04DX002 (ip), vehicle: saline): 108 % of control

N#Cc1c(F)c(F)cc(F)c1F
T/C [11]: 100 % of control | T/C [8]: 96 % of control | T/C [12]: 96 % of control | T/C [9]: 96 % of control | T/C [10]: 93 % of control

CCOC(=O)C(C(=O)OCC)C(C[N+](=O)[O-])c1ccccc1 (centres undefined)
T/C (dose: 50.0 mg/kg/injection, schedule: Q01DX009 (ip), vehicle: saline): 92 % of control | T/C [15]: 116 % of control | T/C [16]: 96 % of control

CC(C)N(CCN(C)C(=O)C(O)(c1ccccc1)c1ccccc1)C(C)C
T/C [7]: 101 % of control | T/C [8]: 93 % of control and 98 % of control | T/C [9]: 104 % of control

O=S(O)O.O=S(O)O.[Co].[NH2-].[NH2-].[NH2-].[NH2-]
T/C [2]: 108 % of control | T/C [3]: 108 % of control | T/C [17]: 119 % of control

CCCCN=C(N)CCl
T/C (dose: 25.0 mg/kg/injection, schedule: Q04DX002 (ip), vehicle: saline): 100 % of control | T/C (dose: 50.0 mg/kg/injection, schedule: Q04DX002 (ip), vehicle: saline): 100 % of control | T/C [18]: 100 % of control and 111 % of control

N/C(=N\OCc1ccccc1)c1ncn(C2CCCC2)c1N
T/C (dose: 75.0 mg/kg/injection, schedule: Q01DX001 (ip), vehicle: other): 102 % of control | T/C (dose: 150.0 mg/kg/injection, schedule: Q01DX001 (ip), vehicle: other): 106 % of control | T/C (dose: 300.0 mg/kg/injection, schedule: Q01DX001 (ip), vehicle: other): 103 % of control

O=C(OCC1OC(n2ccn(C3OC(COC(=O)c4ccccc4)C(OC(=O)c4ccccc4)C3OC(=O)c3ccccc3)c2=S)C(OC(=O)c2ccccc2)C1OC(=O)c1ccccc1)c1ccccc1 (centres undefined)
T/C (dose: 12.5 mg/kg/injection, schedule: Q01DX005 (ip), vehicle: water): 102 % of control | T/C (dose: 25.0 mg/kg/injection, schedule: Q01DX005 (ip), vehicle: water): 104 % of control | T/C (dose: 50.0 mg/kg/injection, schedule: Q01DX005 (ip), vehicle: water): 94 % of control | T/C (dose: 100.0 mg/kg/injection, schedule: Q01DX005 (ip), vehicle: water): 94 % of control | T/C (dose: 200.0 mg/kg/injection, schedule: Q01DX005 (ip), vehicle: water): 94 % of control

O=c1[nH]cc(Cl)cc1Cl
T/C (dose: 100.0 mg/kg/injection, schedule: Q04DX003 (ip), vehicle: other): 91 % of control | T/C (dose: 200.0 mg/kg/injection, schedule: Q04DX003 (ip), vehicle: other): 103 % of control | T/C (dose: 400.0 mg/kg/injection, schedule: Q04DX003 (ip), vehicle: other): 105 % of control

Cc1ccc(S(=O)(=O)OC2CCC3(C)C(CCC4C3CCC3(C)C(C(C)CCCC(C)C)CCC43)C2)cc1 (centres undefined)
T/C [8]: 92 % of control | T/C [9]: 90 % of control | T/C [10]: 89 % of control

Cc1oc(N)c(C#N)c1C
T/C [11]: 101 % of control | T/C [8]: 102 % of control | T/C [12]: 104 % of control | T/C [9]: 96 % of control | T/C [13]: 106 % of control | T/C [10]: 102 % of control

CCCCCCCC/C=C/CCCCCCCC1=NCCN1CCO
T/C [2]: 95 % of control | T/C [3]: 103 % of control | T/C [17]: 100 % of control

COc1ccc(P(c2ccc(OC)cc2)c2ccc(OC)cc2)cc1
T/C [7]: 97 % of control | T/C [8]: 96 % of control | T/C [9]: 91 % of control

CC(=O)Oc1c(Cl)cc(Cl)c(Cl)c1[N+](=O)[O-]
T/C [4]: 93 % of control | T/C [5]: 93 % of control

CCC[CH2][Sn]1([CH2]CCC)[O]C2C(CO)OC(n3cnc4c(N)ncnc43)C2[O]1 (centres undefined)
T/C (dose: 0.2 mg/kg/injection, schedule: Q01DX005 (ip), vehicle: other): 107 % of control | T/C (dose: 0.39 mg/kg/injection, schedule: Q01DX005 (ip), vehicle: other): 104 % of control | T/C (dose: 0.78 mg/kg/injection, schedule: Q01DX005 (ip), vehicle: other): 104 % of control | T/C (dose: 1.56 mg/kg/injection, schedule: Q01DX005 (ip), vehicle: other): 102 % of control and 107 % of control | T/C (dose: 3.13 mg/kg/injection, schedule: Q01DX005 (ip), vehicle: other): 103 % of control and 110 % of control

[O-][n+]1cccc2ccc3ccccc3c21
T/C (dose: 50.0 mg/kg/injection, schedule: Q01DX009 (ip), vehicle: other): 101 % of control | T/C (dose: 100.0 mg/kg/injection, schedule: Q01DX009 (ip), vehicle: other): 101 % of control

CN(CCC#N)Cc1cc(C(C)(C)C)cc(-c2ccccc2)c1O
T/C [11]: 90 % of control | T/C [12]: 90 % of control
